The source made the active and inactive calls.
Tests used:
[1] = HepG2 cell cytotoxicity, dose response, cytotoxicity control for Shn3 inhibitor project, CellTiter-Glo, cherry-picked (AID 624134); type: functional, cell-based
[2] = Shn3 3'UTR reporter inhibitors, dose response, cell-based, Clone20 osteoblasts, firefly luciferase, cherry-picked (AID 624132); type: functional;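 note: firefly luciferase luminescence from reporter carrying the Shn3 3'UTR in osteoblasts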
[3] = control 3'UTR Renilla luciferase suppression, dose response, counter-screen for Shn3 inhibitor project, cell-based, Clone20-Shn3RL, cherry-picked (AID 624133); type: functional
INS1 = experiment: beta cell apoptosis inhibitors, cytokine rescue, dose response, luminescence, retest (AID 449756); type: functional, cell-based; conditions: Rattus norvegicus;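 note: cell death triggered by IL-1 beta plus TNF-alpha plus IFN-gamma mixture; protective hits raise ATP signal compared with cytokine alone wells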
Large T antigen = Large T antigen (Simian virus 40, UniProt P03070); type: functional, Betapolyomavirus macacae;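 note: Confirmatory-stage PubChem screen for compounds that inhibit SV40 T antigen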
[4] = molecular target: Luciferin 4-monooxygenase (Photinus pyralis, UniProt P08659); experiment: firefly luciferase enzyme inhibitors, dose response, biochemical, luminescence (AID 1891)
[5] = Luminescence Cell-Based Dose Confirmation HTS to Identify Inhibitors of Platelet Dense Granule Release. [Related pubchem assays: 1663 (Primary HTS), 1678 (Summary of Project)]; type: functional
[6] = molecular target: Induced myeloid leukemia cell differentiation protein Mcl-1 (Homo sapiens, UniProt Q07820); type: functional
[7] = molecular target: T1, Corticotropin-releasing factor receptor 2/Corticotropin-releasing factor-binding protein (Homo sapiens, UniProt P24387+Q13324); experiment: Dose Response confirmation of uHTS hits for small molecule antagonists of the CRF-binding protein and CRF-R2 receptor complex.; type: functional; conditions: read-out: IC50_Mean
T1 sequence (Q13324 whole entry): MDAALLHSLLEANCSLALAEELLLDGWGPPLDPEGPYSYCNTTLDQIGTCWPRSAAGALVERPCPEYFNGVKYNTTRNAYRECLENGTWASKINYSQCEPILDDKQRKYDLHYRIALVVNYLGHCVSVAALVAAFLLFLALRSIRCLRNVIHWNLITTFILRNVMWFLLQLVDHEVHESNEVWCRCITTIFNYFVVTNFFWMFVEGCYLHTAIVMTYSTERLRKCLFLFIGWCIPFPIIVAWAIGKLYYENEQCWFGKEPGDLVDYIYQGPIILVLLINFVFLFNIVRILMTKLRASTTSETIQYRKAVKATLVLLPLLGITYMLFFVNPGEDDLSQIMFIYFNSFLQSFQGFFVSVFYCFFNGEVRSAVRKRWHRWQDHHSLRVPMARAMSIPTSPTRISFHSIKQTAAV
T1 sequence (P24387 whole entry): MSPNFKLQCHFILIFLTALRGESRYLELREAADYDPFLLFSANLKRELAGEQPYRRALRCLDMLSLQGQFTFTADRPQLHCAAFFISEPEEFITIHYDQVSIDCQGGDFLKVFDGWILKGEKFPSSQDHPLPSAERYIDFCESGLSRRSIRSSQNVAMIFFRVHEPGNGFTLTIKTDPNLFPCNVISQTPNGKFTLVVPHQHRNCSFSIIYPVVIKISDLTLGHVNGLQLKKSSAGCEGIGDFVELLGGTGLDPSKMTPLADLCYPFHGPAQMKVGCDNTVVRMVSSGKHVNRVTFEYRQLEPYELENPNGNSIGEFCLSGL

[8] = molecular target: T1, Corticotropin-releasing factor receptor 2/Corticotropin-releasing factor-binding protein; experiment: activators of CRF receptor 2 with binding protein – uHTS hits, confirmation (AID 602473); type: functional; conditions: read-out: EC50_Mean
[9] = cytotoxicity toward NIH3T3 fibroblasts, dose response, counter-screen, cell-based, ATP luminescence, mouse fibroblasts (AID 2010); type: functional;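 note: cells exposed to compound for about 90 hours before reading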
[10] = inhibitors of intracellular T. cruzi replication, confirmation, NIH3T3 host cells, beta-gal luminescence (AID 2044); type: functional, cell-based;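 note: intracellular parasites grown in NIH/3T3 mouse fibroblasts as host cells; luminescent beta-galactosidase reporter signal from transgenic T. cruzi replicating inside host cells; inhibitors lower the luminescence signal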
cells = type: functional
BJ [11] = experiment: cells; type: functional, cell-based, Homo sapiens; conditions: Homo sapiens, BJ
BJ [12] = experiment: cytotoxicity toward BJ-TERT-LT-ST fibroblasts, dose response, cell-based, RAS-independent, luminescence (AID 1935); type: functional, Homo sapiens; conditions: Homo sapiens, BJ;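 note: BJ fibroblasts immortalized with TERT plus LT and ST oncogenes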
BJ [13] = experiment: cytotoxicity toward BJ-TERT fibroblasts, dose response, cell-based, RAS-independent, luminescence (AID 1933); type: functional, Homo sapiens; conditions: Homo sapiens, BJ
[14] = cytotoxicity toward DRD oncogenic fibroblasts, dose response, cell-based, non-viral oncogenic, luminescence (AID 1934); type: functional; conditions: Homo sapiens
Protein skinhead-1 = molecular target: T2, Protein skinhead-1 (Caenorhabditis elegans, UniProt P34707); type: functional
T2 sequence (P34707 whole entry): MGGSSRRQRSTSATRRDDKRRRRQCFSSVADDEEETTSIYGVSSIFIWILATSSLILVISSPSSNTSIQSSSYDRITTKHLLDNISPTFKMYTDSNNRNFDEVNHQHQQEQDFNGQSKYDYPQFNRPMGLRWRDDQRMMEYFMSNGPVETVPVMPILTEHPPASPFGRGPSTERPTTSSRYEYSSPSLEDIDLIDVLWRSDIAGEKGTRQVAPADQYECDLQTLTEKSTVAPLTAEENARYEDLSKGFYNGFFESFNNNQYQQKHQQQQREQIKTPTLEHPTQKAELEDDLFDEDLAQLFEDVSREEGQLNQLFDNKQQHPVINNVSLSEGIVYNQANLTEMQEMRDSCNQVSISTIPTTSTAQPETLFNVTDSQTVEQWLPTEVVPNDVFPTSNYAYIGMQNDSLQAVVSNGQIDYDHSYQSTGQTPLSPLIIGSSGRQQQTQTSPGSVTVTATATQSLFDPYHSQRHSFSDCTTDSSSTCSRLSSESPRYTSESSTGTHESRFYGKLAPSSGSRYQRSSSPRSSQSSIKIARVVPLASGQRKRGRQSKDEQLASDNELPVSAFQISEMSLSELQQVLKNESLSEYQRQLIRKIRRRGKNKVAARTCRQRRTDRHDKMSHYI

Cytochrome P450 2C9 = Cytochrome P450 2C9 (Homo sapiens, UniProt P11712)
[15] = growth suppression of PTEN-null colon cells, dose response, cell-based, HCT116 PTEN knockout (AID 1047); type: functional;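 note: HCT116 colon tumor cells with PTEN knocked out; cells exposed to compound for 60 hours before readout; potency for loss of cell viability measured by luminescence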
[16] = molecular target: T3, Rac GTPase-activating protein 1 (Homo sapiens, UniProt Q9H0H5); experiment: MgcRacGAP GTPase-activating activity inhibitors, confirmation, biochemical, ADP Hunter fluorescence, primary and confirmatory (AID 624330); type: functional
T3 sequence (Q9H0H5 whole entry): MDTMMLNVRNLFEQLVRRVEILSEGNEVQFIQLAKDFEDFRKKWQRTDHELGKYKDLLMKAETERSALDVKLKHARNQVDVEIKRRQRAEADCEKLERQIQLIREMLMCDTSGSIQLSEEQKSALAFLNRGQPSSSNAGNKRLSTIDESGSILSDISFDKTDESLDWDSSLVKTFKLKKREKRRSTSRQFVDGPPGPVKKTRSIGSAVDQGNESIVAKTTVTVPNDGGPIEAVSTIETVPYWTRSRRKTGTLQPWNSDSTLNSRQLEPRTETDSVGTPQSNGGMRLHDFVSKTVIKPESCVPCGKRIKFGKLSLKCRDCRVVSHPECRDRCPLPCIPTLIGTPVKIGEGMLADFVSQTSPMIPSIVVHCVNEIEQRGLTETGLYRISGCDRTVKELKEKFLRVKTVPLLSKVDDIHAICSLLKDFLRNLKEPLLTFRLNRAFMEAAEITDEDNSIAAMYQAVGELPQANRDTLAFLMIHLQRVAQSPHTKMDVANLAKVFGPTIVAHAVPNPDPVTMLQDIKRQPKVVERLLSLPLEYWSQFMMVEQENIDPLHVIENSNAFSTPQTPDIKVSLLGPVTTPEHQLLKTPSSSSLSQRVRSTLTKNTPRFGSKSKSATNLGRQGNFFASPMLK

[17] = P. falciparum Dd2 growth inhibitors, dose response, SYBR Green, cherry-picked samples (AID 1159567); type: functional, cell-based

Chain of Luciferin 4-monooxygenase (P08659 whole entry): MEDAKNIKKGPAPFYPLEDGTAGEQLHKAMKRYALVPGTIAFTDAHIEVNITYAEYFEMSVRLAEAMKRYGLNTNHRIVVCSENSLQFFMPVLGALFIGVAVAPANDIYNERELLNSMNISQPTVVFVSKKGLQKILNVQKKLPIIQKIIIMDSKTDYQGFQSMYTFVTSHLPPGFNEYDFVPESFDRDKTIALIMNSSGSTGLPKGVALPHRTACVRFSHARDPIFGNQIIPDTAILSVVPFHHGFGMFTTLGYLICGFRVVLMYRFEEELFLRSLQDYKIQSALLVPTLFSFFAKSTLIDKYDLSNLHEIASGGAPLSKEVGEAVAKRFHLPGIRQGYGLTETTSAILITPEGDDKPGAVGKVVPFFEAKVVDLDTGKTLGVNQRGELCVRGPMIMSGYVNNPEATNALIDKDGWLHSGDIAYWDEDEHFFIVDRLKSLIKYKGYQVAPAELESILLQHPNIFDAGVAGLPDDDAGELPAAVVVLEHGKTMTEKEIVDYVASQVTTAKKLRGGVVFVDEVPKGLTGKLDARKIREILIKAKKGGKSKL
Chain of Induced myeloid leukemia cell differentiation protein Mcl-1 (Q07820 whole entry): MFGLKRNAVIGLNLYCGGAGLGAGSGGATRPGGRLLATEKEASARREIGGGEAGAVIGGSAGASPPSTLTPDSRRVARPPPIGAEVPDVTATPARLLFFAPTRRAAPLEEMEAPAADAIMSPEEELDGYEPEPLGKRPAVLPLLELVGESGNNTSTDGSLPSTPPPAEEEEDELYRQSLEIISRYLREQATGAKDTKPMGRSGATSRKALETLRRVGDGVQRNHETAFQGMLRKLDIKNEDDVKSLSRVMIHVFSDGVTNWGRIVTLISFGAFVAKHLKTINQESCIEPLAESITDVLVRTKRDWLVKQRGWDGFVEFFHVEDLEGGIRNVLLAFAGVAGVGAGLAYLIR
Chain of Large T antigen (P03070 whole entry): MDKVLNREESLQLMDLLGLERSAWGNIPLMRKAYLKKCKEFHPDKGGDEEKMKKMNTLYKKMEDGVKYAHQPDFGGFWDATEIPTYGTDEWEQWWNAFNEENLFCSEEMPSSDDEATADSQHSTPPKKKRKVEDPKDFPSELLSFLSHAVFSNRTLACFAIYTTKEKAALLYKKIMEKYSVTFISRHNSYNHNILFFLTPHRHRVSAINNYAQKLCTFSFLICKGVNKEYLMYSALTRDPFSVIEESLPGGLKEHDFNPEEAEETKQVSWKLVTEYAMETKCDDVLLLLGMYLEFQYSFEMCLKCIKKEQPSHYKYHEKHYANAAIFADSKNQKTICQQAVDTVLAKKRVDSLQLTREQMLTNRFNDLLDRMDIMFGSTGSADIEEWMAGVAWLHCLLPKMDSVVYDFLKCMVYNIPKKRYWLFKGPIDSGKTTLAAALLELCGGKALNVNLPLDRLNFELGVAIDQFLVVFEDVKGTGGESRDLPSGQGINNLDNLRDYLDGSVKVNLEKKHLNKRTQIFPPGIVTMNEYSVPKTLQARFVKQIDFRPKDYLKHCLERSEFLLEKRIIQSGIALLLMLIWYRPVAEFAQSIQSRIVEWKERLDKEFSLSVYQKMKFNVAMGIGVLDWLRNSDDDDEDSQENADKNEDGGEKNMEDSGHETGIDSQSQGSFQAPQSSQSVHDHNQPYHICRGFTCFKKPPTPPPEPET
Chain of Cytochrome P450 2C9 (P11712 whole entry): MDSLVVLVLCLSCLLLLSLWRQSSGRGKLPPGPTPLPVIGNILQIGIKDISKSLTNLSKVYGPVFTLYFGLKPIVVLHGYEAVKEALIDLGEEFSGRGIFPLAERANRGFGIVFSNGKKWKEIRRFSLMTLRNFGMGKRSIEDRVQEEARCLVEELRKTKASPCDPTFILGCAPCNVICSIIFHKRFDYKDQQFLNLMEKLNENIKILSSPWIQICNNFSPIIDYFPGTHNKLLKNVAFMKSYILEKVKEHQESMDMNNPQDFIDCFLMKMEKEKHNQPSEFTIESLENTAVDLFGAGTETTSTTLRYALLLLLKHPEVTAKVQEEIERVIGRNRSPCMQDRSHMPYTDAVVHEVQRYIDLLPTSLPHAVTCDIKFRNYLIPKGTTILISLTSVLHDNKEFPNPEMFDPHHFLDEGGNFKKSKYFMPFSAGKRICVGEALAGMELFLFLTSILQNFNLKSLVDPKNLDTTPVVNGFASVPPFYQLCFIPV

COCCN(C(=O)COC(=O)C1CCC(C(C)(C)C)CC1)c1c(N)n(Cc2ccccc2)c(=O)[nH]c1=O (stereo unspecified)
AC50 [1]: 43.1 µM (active) | AC50 [2]: 5.15 µM (active) | AC50 [3]: 4.83 µM (active) | AC50 (INS1): 2.34 µM (active)

N#C/C(=C\c1ccccc1OCc1ccc(C(=O)O)cc1)C(=O)Nc1ccc(O)cc1
IC50 (Large T antigen): 11.5 µM (active)

CCC(=O)c1ccc(OCC(O)Cn2c(C)nc3ccccc32)cc1 (stereo unspecified)
AC50 [1]: 49.9 µM (active) | AC50 [2]: 2.28 µM (active) | AC50 [3]: 14.1 µM (active)

COc1ccccc1NC(=O)NC1(C(=O)N2CCCCCC2)CCCCC1
EC50 [4]: > 112 µM (not active) | EC50 [5]: > 112 µM (not active)

COc1ccc(C(=O)CSc2nnc(-c3ccco3)c(-c3ccco3)n2)cc1
IC50 [6]: 6.58 µM (active)

Cc1cnc([N+](=O)[O-])n1CCOC(=O)NC(=O)c1cccc(F)c1
EC50 [4]: > 112 µM (not active) | EC50 [5]: 18.4 µM (active)

CCN1C(=O)/C(=C\C=C\c2ccccc2[N+](=O)[O-])SC1=S
IC50 [7]: > 47.1 µM (inactive) | EC50 [8]: > 53 µM (inactive)

Cc1cc(NC(=O)c2cc([N+](=O)[O-])cc([N+](=O)[O-])c2)no1
EC50 [9]: > 60 µM (not active) | EC50 [10]: 0.287 µM (active) | IC50 (cells): 13.3 µM (active)

O=C(Cc1cccs1)Nc1nc2c(ccc3ccccc32)s1
IC50 [7]: > 47.1 µM (inactive) | EC50 [8]: > 53 µM (inactive)

COc1cc2c(cc1OC)-c1cc(Nc3ccccc3)nc(=O)n1CC2
EC50 [4]: > 112 µM (not active) | EC50 [5]: 1.63 µM (active)

CCN(C(=O)CN1C(=O)NC(c2ccccc2)(c2ccccc2)C1=O)c1ccccc1
EC50 [4]: > 112 µM (not active) | EC50 [5]: > 112 µM (not active)

Oc1ccc(N=Nc2ccc3c(c2)OCO3)c2ccccc12
EC50 (BJ [11]): 10.9 µM (active) | EC50 (BJ [12]): 6.46 µM (inconclusive) | EC50 (BJ [13]): 2.85 µM (active) | EC50 [14]: 19.4 µM (inconclusive)

O=C(Nc1nccs1)c1ccc2ccccc2c1
IC50 (cells): 6.75 µM (active) | IC50 (Protein skinhead-1): 20.8 µM (active)

CCNC(=O)c1c(NC(C)=O)sc2c1CCCC2
EC50 [4]: > 112 µM (not active) | EC50 [5]: 15.2 µM (active) | AC50 (Cytochrome P450 2C9): 17.8 µM (inconclusive)

Cc1ccc(S(=O)(=O)CCC(=O)OCC(=O)NCC(=O)Nc2cccc(C)c2C)cc1
EC50 [4]: > 112 µM (not active) | EC50 [5]: > 112 µM (not active)

Cc1ccc(C(=O)OCC(=O)c2cc(C)n(CC3CCCO3)c2C)cc1 (stereo unspecified)
IC50 [7]: > 47.1 µM (inactive) | EC50 [8]: > 53 µM (inactive)

CC(C)c1ccccc1-n1c(SCC(=O)N2CCc3ccccc3C2)nc2ccccc2c1=O
AC50 [1]: 55.4 µM (active) | AC50 [2]: 2.99 µM (active) | AC50 [3]: 3.83 µM (active) | AC50 (INS1): 2.44 µM (active)

N#Cc1c(-c2ccco2)c2c([nH]c1=S)CCCC2
IC50 (Large T antigen): 37.7 µM (active)

Cc1cccc(NC(=O)CSc2cc(C(=O)c3nccn3C)c3ccccc3n2)c1
EC50 [15]: 453 µM (active)

COc1ccc(NC(=O)C2CCCN(c3nn4c(=O)cc(C)nc4s3)C2)cc1 (stereo unspecified)
EC50 [4]: > 112 µM (not active) | EC50 [5]: > 112 µM (not active)

Cc1nnc(SCC(=O)N(C)Cc2ccccc2)nc1O
IC50 [7]: > 47.1 µM (inactive) | EC50 [8]: > 53 µM (inactive)

CN(C)c1ncc(S(=O)(=O)c2ccc(Cl)cc2)c(-c2ccc(Cl)cc2Cl)n1
IC50 [7]: > 47.1 µM (inactive) | EC50 [8]: > 53 µM (inactive)

O=C(Nc1cccc(S(=O)(=O)N2CCOCC2)c1)c1c2c(nc3ccccc13)CCC2
IC50 [6]: 5.02 µM (active)

CCCCn1c(N)c(N(CCC(C)C)C(=O)Cc2ccc(S(=O)(=O)N3CCOCC3)s2)c(=O)[nH]c1=O
IC50 [7]: > 47.1 µM (inactive) | EC50 [8]: > 53 µM (inactive)

C[C@H]1CN([C@@H](C)CO)C(=O)Cc2cc(NS(C)(=O)=O)ccc2O[C@@H]1CN(C)Cc1ccc(Cl)c(Cl)c1
IC50 [7]: > 47.1 µM (inactive) | EC50 [8]: 40.7 µM (active)

Cc1ccc(C(=O)N/C(=C\c2cn(C)c3ccccc23)C(=O)NCCCN2CCOCC2)cc1
IC50 [7]: > 47.1 µM (inactive) | EC50 [8]: > 53 µM (inactive)

CCOc1ccc(S(=O)(=O)N2CCN(C(=O)c3ccncc3)CC2)cc1
IC50 [7]: > 47.1 µM (inactive) | EC50 [8]: > 53 µM (inactive)

CC[C@@H]1CCCCc2ccccc2[C@H](C(=O)C[C@H](O)CC(C)=O)OC1=O
IC50 [7]: > 47.1 µM (inactive) | EC50 [8]: > 53 µM (inactive)

COc1cc(/C=N\NC(=O)c2ccc(Cn3nc([N+](=O)[O-])c(Cl)c3C)o2)ccc1O
IC50 (Large T antigen): 32.7 µM (active) | IC50 [16]: 30.5 µM (active)

COc1cc(/C=N/N(C)c2ccccc2)ccc1O
IC50 (Large T antigen): 8.47 µM (active) | IC50 [16]: 15.6 µM (active)

CN(C)c1ccc(/C=N/NC(=O)c2cccc(C(=O)N/N=C/c3ccc(N(C)C)cc3)n2)cc1
IC50 [6]: 1.15 µM (active)

C[C@@H](O)C#Cc1ccc([C@H]2[C@H]3CN(S(=O)(=O)c4ccccc4)CCCCN3[C@H]2CO)cc1
AC50 [17]: 7.37 µM (active)

C[C@H]1CN([C@@H](C)CO)S(=O)(=O)c2ccc(C#Cc3ccccc3)cc2O[C@@H]1CN(C)S(=O)(=O)c1cn(C)cn1
AC50 [17]: 3.95 µM (active)

COc1ccc2c3c([nH]c2c1)[C@@H](CO)N(Cc1cc(F)ccc1F)CC31CN(C(=O)CN(C)C)C1
AC50 [17]: 3.87 µM (active)

Cn1c(=O)n(C)c2cc(NC(=O)CCl)ccc21
EC50 (BJ [11]): 20.7 µM (inconclusive) | EC50 (BJ [12]): > 75 µM (inconclusive) | EC50 (BJ [13]): 18.8 µM (active) | EC50 [14]: 28 µM (active)

O=C(O)C[C@H](O)C[C@H](O)/C=C/c1c(C2CC2)nc2ccccc2c1-c1ccc(F)cc1 [PITAVASTATIN CALCIUM]
EC50 (BJ [11]): 4.21 µM (active) | EC50 (BJ [12]): 0.559 µM (active) | EC50 (BJ [13]): 0.299 µM (active) | EC50 [14]: 0.353 µM (active)
